Measurements as given in patent publication US10981894B2, “Melanocortin subtype-2 receptor (MC2R) antagonists and uses thereof” (Crinetics Pharmaceuticals, Inc., priority 2018, dated 2021).

Molecular target: hMC2 receptor (Homo sapiens, UniProt Q01718)
Test: hMC2 membrane binding assay ([125I]ACTH (1-39) Tyr23, SPA)
Design: scale not given here
Conditions: crude hMC2R membranes from CRE-bla-CHO-K1 cells expressing hMC2 receptor and hMRAP; [125I]ACTH (1-39) Tyr23 0.2 nM; 1.5 hours at room temperature; read-out: MC2R binding potency
Summary of the method: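 Ki comes from non-linear regression of SPA scintillation counts. Displacement of 0.2 nM [125I]ACTH(1-39) Tyr23 by compound dose series (usually 0–10,000 nM final) ran 1.5 h at room temperature. Membranes came from CHO-K1 CRE-bla cells stably expressing hMC2R plus hMRAP, bead-coupled in pH 7.4 buffer with 0.2% BSA.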

Chain of hMC2 receptor (Q01718 whole entry): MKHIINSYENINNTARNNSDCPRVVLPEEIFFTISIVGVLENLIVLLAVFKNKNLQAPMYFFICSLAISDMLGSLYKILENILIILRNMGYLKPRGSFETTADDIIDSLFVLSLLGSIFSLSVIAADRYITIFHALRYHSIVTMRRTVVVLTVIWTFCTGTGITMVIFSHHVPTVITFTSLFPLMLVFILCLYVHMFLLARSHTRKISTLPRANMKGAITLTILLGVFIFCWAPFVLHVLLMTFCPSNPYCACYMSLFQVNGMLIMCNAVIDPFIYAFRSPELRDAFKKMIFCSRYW
Chain of hMC2 receptor (Q8TCY5 whole entry partner): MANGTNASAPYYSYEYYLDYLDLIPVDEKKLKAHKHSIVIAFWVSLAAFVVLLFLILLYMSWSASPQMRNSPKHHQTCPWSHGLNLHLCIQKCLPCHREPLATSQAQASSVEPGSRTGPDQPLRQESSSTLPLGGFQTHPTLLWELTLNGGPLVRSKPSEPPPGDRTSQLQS

| SMILES | Ki |
| --- | --- |
| CCOc1ncccc1-c1ccc(N2CCN(C(=O)c3ccc(Cl)cc3C(F)(F)F)C[C@H]2CC)c(C(=O)NC[C@H]2CCCN2)c1F [Compound 1-124, 6-[(2R)-4-[4-chloro-2-(trifluoromethyl)benzoyl]-2-ethylpiperazin-1-yl]-3-(2-ethoxypyridin-3-yl)-2-fluoro-N-{[(2R)-pyrrolidin-2-yl]methyl}benzamide] | < 0.01 µM |
| CCOc1ncccc1-c1ccc(N2CCN(C(=O)c3ccc(Cl)cc3C)C[C@H]2CC)c(C(=O)NCCN)c1 [Compound 1-87, N-(2-aminoethyl)-2-[(2R)-4-(4-chloro-2-methylbenzoyl)-2-ethylpiperazin-1-yl]-5-(2-ethoxypyridin-3-yl)benzamide] | < 0.01 µM |
| CCOc1ncccc1-c1ccc(N2CCN(C(=O)c3ccc(F)cc3C(F)(F)F)C[C@H]2CC)c(C(=O)N[C@@H]2CCNC2)c1F [Compound 1-111, 3-(2-ethoxypyridin-3-yl)-6-[(2R)-2-ethyl-4-[4-fluoro-2-(trifluoromethyl)benzoyl]piperazin-1-yl]-2-fluoro-N-[(3R)-pyrrolidin-3-yl]benzamide] | < 0.01 µM |
| CCOc1ncccc1-c1ccc(N2CCN(C(=O)c3ccc(OC)nc3C(F)(F)F)C[C@H]2CC)c(C(=O)NCCNC)c1F [Compound 1-164, 3-(2-ethoxypyridin-3-yl)-6-[(2R)-2-ethyl-4-[6-methoxy-2-(trifluoromethyl)pyridine-3-carbonyl]piperazin-1-yl]-2-fluoro-N-[2-(methylamino)ethyl]benzamide] | < 0.01 µM |
| CCOc1ncccc1-c1ccc(N2CCN(C(=O)c3ccc(Cl)cc3C(F)(F)F)C[C@H]2CC)c(C(=O)NC[C@@H]2CCN2C)c1F [Compound 1-229, 6-[(2R)-4-[4-chloro-2-(trifluoromethyl)benzoyl]-2-ethylpiperazin-1-yl]-3-(2-ethoxypyridin-3-yl)-2-fluoro-N-{[(2S)-1-methylazetidin-2-yl]methyl}benzamide] | < 0.01 µM |
| CCOc1ncccc1-c1ccc(N2CCN(C(=O)c3ccc(Cl)cc3C(F)F)C[C@H]2CC)c(C(=O)NCCNC)n1 [Compound 1-213, 5-[(2R)-4-[4-chloro-2-(difluoromethyl)benzoyl]-2-ethylpiperazin-1-yl]-2′-ethoxy-N-[2-(methylamino)ethyl]-[2,3′-bipyridine]-6-carboxamide] | < 0.01 µM |
| CCOc1ncccc1-c1ccc(N2CCN(C(=O)c3ccc(C(F)(F)F)cc3N(C)C)C[C@H]2CC)c(C(=O)NCCN)c1 [Compound 1-107, N-(2-aminoethyl)-2-[(2R)-4-[2-(dimethylamino)-4-(trifluoromethyl)benzoyl]-2-ethylpiperazin-1-yl]-5-(2-ethoxypyridin-3-yl)benzamide] | < 0.01 µM |
| CCOc1ncccc1-c1ccc(N2CCN(C(=O)c3ccc(F)cc3C(F)(F)F)C[C@H]2CC)c(C(=O)N[C@@H]2CCN(C)C2)n1 [Compound 1-258, 2′-ethoxy-5-[(2R)-2-ethyl-4-[4-fluoro-2-(trifluoromethyl)benzoyl]piperazin-1-yl]-N-[(3R)-1-methylpyrrolidin-3-yl]-[2,3′-bipyridine]-6-carboxamide] | < 0.01 µM |
| CCOc1ncccc1-c1ccc(N2CCN(C(=O)c3ccc(Cl)cc3C(F)(F)F)C[C@H]2CC)c(C(=O)N[C@H]2CCNC2)c1F [Compound 1-200, 6-[(2R)-4-[4-chloro-2-(trifluoromethyl)benzoyl]-2-ethylpiperazin-1-yl]-3-(2-ethoxypyridin-3-yl)-2-fluoro-N-[(3S)-pyrrolidin-3-yl]benzamide] | < 0.01 µM |
| CCOc1ncccc1-c1ccc(N2CCN(C(=O)c3ccc(Cl)cc3C(F)(F)F)C[C@H]2CC)c(C(=O)NC[C@@H]2CCN2)c1 [Compound 1-97, N-{[(2S)-azetidin-2-yl]methyl}-2-[(2R)-4-[4-chloro-2-(trifluoromethyl)benzoyl]-2-ethylpiperazin-1-yl]-5-(2-ethoxypyridin-3-yl)benzamide] | < 0.01 µM |
| CCOc1ncccc1-c1ccc(N2CCN(C(=O)c3ccc(OC)nc3C(F)(F)F)C[C@H]2CC)c(C(=O)NCC2CN(C)C2)n1 [Compound 1-242, 2′-ethoxy-5-[(2R)-2-ethyl-4-[6-methoxy-2-(trifluoromethyl)pyridine-3-carbonyl]piperazin-1-yl]-N-[(1-methylazetidin-3-yl)methyl]-[2,3′-bipyridine]-6-carboxamide] | < 0.01 µM |
| CCOc1ncccc1-c1ccc(N2CCN(C(=O)c3ccc(Cl)cc3C(F)(F)F)C[C@H]2CC)c(C(=O)NCC2=NCCN2)n1 [Compound 1-226, 5-[(2R)-4-[4-chloro-2-(trifluoromethyl)benzoyl]-2-ethylpiperazin-1-yl]-N-[(4,5-dihydro-1H-imidazol-2-yl)methyl]-2′-ethoxy-[2,3′-bipyridine]-6-carboxamide] | < 0.01 µM |
| CCOc1ccccc1-c1ccc(N2CCN(C(=O)c3ccc(C(F)(F)F)cc3Cl)C[C@H]2CC)c(C(=O)NCCCN)c1 [Compound 1-23, N-(3-aminopropyl)-4-[(2R)-4-[2-chloro-4-(trifluoromethyl)benzoyl]-2-ethylpiperazin-1-yl]-2′-ethoxy-[1,1′-biphenyl]-3-carboxamide] | 0.01 to 0.1 µM |
| CCOc1ncccc1-c1ccc(N2CCN(C(=O)c3ccc(C)cc3C(F)(F)F)C[C@H]2CC)c(C(=O)NCCN)c1 [Compound 1-59, N-(2-aminoethyl)-5-(2-ethoxypyridin-3-yl)-2-[(2R)-2-ethyl-4-[4-methyl-2-(trifluoromethyl)benzoyl]piperazin-1-yl]benzamide] | < 0.01 µM |
| CCOc1ncccc1-c1ccc(N2CCN(C(=O)c3ccc(Cl)cc3C(F)(F)F)C[C@H]2CC)c(C(=O)NC[C@H]2CCN2)c1 [Compound 1-102, N-{[(2R)-azetidin-2-yl]methyl}-2-[(2R)-4-[4-chloro-2-(trifluoromethyl)benzoyl]-2-ethylpiperazin-1-yl]-5-(2-ethoxypyridin-3-yl)benzamide] | < 0.01 µM |
| CCOc1ncccc1-c1ccc(N2CCN(C(=O)c3ccc(F)cc3-c3ccc(CN)cc3)C[C@H]2CC)c(C(=O)NCCN)c1 [Compound 1-36, N-(2-aminoethyl)-2-[(2R)-4-[4′-(aminomethyl)-5-fluoro-[1,1′-biphenyl]-2-carbonyl]-2-ethylpiperazin-1-yl]-5-(2-ethoxypyridin-3-yl)benzamide] | < 0.01 µM |

Other lines, results leading:

| Ki | SMILES |
| --- | --- |
| < 0.01 µM | CCOc1ncccc1-c1ccc(N2CCN(C(=O)C3(C(F)F)CCCC3)C[C@H]2CC)c(C(=O)N[C@@H]2CCN(C)C2)n1 [Compound 1-416, 5-[(2R)-4-[1-(difluoromethyl)cyclopentanecarbonyl]-2-ethylpiperazin-1-yl]-2′-ethoxy-N-[(3R)-1-methylpyrrolidin-3-yl]-[2,3′-bipyridine]-6-carboxamide] |
| < 0.01 µM | CCOc1ncccc1-c1ccc(N2CCN(C(=O)c3ccc(Cl)cc3C(F)F)C[C@H]2CC)c(C(=O)N[C@@H]2CCNC2)n1 [Compound 1-265, 5-[(2R)-4-[4-chloro-2-(difluoromethyl)benzoyl]-2-ethylpiperazin-1-yl]-2′-ethoxy-N-[(3R)-pyrrolidin-3-yl]-[2,3′-bipyridine]-6-carboxamide] |
| < 0.01 µM | CCOc1ncccc1-c1ccc(N2CCN(C(=O)C3(C(F)(F)F)CCCCC3)C[C@H]2CC)c(C(=O)N[C@@H]2CCNC2)n1 [Compound 1-273, 2′-ethoxy-5-[(2R)-2-ethyl-4-[1-(trifluoromethyl)cyclohexanecarbonyl]piperazin-1-yl]-N-[(3R)-pyrrolidin-3-yl]-[2,3′-bipyridine]-6-carboxamide] |
| < 0.01 µM | CCOc1ncccc1-c1ccc(N2CCN(C(=O)C3(C(F)(F)F)CC4CCC3C4)C[C@H]2CC)c(C(=O)NCC2CN(C)C2)n1 (stereo partly drawn) [Compound 1-339, 2′-ethoxy-5-[(2R)-2-ethyl-4-[2-(trifluoromethyl)bicyclo[2.2.1]heptane-2-carbonyl]piperazin-1-yl]-N-[(1-methylazetidin-3-yl)methyl]-[2,3′-bipyridine]-6-carboxamide] |
| < 0.01 µM | CCOc1ncccc1-c1ccc(N2CCN(C(=O)c3ccc(Cl)cc3Cl)C[C@H]2CC)c(C(=O)N[C@@H]2CCN(C)C2)n1 [Compound 1-259, 5-[(2R)-4-(2,4-dichlorobenzoyl)-2-ethylpiperazin-1-yl]-2′-ethoxy-N-[(3R)-1-methylpyrrolidin-3-yl]-[2,3′-bipyridine]-6-carboxamide] |
| < 0.01 µM | CCOc1ncccc1-c1ccc(N2CCN(C(=O)N3CCCC[C@H]3C(F)(F)F)C[C@H]2CC)c(C(=O)N[C@@H]2CCN(C)C2)n1 [Compound 1-427, 2′-ethoxy-5-[(2R)-2-ethyl-4-[(2S)-2-(trifluoromethyl)piperidine-1-carbonyl]piperazin-1-yl]-N-[(3R)-1-methylpyrrolidin-3-yl]-[2,3′-bipyridine]-6-carboxamide] |
| < 0.01 µM | CCOc1ncccc1-c1ccc(N2CCN(C(=O)N3CCc4cccc(C#N)c43)C[C@H]2CC)c(C(=O)N[C@@H]2CCN(C)C2)n1 [Compound 1-383, 5-[(2R)-4-(7-cyano-2,3-dihydro-1H-indole-1-carbonyl)-2-ethylpiperazin-1-yl]-2′-ethoxy-N-[(3R)-1-methylpyrrolidin-3-yl]-[2,3′-bipyridine]-6-carboxamide] |
| < 0.01 µM | CCOc1ncccc1-c1ccc(N2CCN(C(=O)c3ccc(Cl)cc3C(F)F)C[C@H]2CC)c(C(=O)N[C@@H]2CCN(C)C2)n1 [Compound 1-262, 5-[(2R)-4-[4-chloro-2-(difluoromethyl)benzoyl]-2-ethylpiperazin-1-yl]-2′-ethoxy-N-[(3R)-1-methylpyrrolidin-3-yl]-[2,3′-bipyridine]-6-carboxamide] |
| < 0.01 µM | CCOc1ccccc1-c1ccc(N2CCN(C(=O)[C@H]3CC[C@@H](C(F)(F)F)CC3)C[C@H]2CC)c(C(=O)N[C@@H]2CCN(C)C2)n1 [Compound 1-336, 6-(2-ethoxyphenyl)-3-[(2R)-2-ethyl-4-[cis-4-(trifluoromethyl)cyclohexanecarbonyl]piperazin-1-yl]-N-[(3R)-1-methylpyrrolidin-3-yl]pyridine-2-carboxamide] |
